Assays:
RS4;11-BCL-2 G101V cells = experiment: Cell proliferation assay (MTS), RS4;11-BCL-2 G101V engineered cells; assay type: cell-based; conditions: Homo sapiens, 120 h, read-out: RS4, 11 BCL2-G101V IC50
How it was run: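 RS4;11 cells stably overexpressing mutant BCL-2 were seeded and pre-incubated 4 h (G101V, F104L) or 24 h (D103E, D103Y), then exposed to compound at 1.5–10000 nM for 120 h (G101V, F104L) or 72 h (D103E, D103Y) at 37 °C. Viability was read by MTS absorbance at 490 nm after 2 h; IC50 fitted.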

Toledo cells = experiment: Cell proliferation assay (MTS), Toledo cells; assay type: cell-based; conditions: Homo sapiens, 72 h
Procedure: MTS testing kit was purchased from Promega (Madison, WI, USA). The RPMI-1640, Fetal bovine serum and Penicillin-Streptomycin were purchased from BI (Biological Industries, Beit Haemek, Israel). Dimethyl sulfoxide (DMSO) was purchased from Sigma (St. Louis., MO, USA). Toledo (ATCC catalog #: CRL-2631) cells were cultured in RPMI-1640 supplemented with Penicillin-Streptomycin and 10% FBS.
To investigate whether a compound is able to inhibit the activity of BCL-2 in cells, a mechanism-based assay using Toledo lines was developed. In this assay, the inhibition of BCL-2 was reflected by the inhibition of cell proliferation of Toledo cells. Cells were plated into 96-well plates at the optimized cell density of 30000 cells/well. Plates were incubated at 37° C., with 5% CO2 for 4 h. Compounds were serially diluted and added to the plates with the final concentrations of 10000, 3333.3, 1111.1, 370.4, 123.5, 41.2, 13.7, 4.6 and 1.5 nM. Plates were incubated at 37° C., with 5% CO2 for 72 h. 20 μl MTS was added into each well and the plates were incubated at 37° C., with 5% CO2 for exactly 2 h. The absorbance was measured by a microplate reader at 490 nm. IC50 was calculated using GraphPad Prism 5.0 software.

Compound | IC50 (RS4;11-BCL-2 G101V cells) [nM] | IC50 (Toledo cells) [nM]
CCOc1nc2[nH]cc(F)c2cc1Oc1cc(N2CCC3(CC2)CC(N2CCN(Cc4ccc(C#N)cc4)C[C@H]2c2ccccc2C(C)C)C3)ccc1C(=O)NS(=O)(=O)c1cnc(NC[C@H]2CC[C@](C)(O)CC2)c([N+](=O)[O-])c1 [Example 235, 4-(2-((R)-4-(4-cyanobenzyl)-2-(2-isopropylphenyl)piperazin-1-yl)-7-azaspiro[3.5]nonan-7-yl)-2-((6-ethoxy-3-fluoro-1H-pyrrolo [2,3-b]pyridin-5-yl)oxy)-N-((6-((((1r,4r)-4-hydroxy-4-methylcyclohexyl)methyl)amino)-5-nitropyridin-3-yl)sulfonyl)benzamide] | 1 | 1
CCOc1nc2[nH]cc(F)c2cc1Oc1cc(N2CCC3(CC2)CC(N2CCN(Cc4ccc(F)cc4)C[C@H]2c2ccccc2C(C)C)C3)ccc1C(=O)NS(=O)(=O)c1cnc(NC[C@H]2CC[C@](C)(O)CC2)c([N+](=O)[O-])c1 [Example 234, 2-((6-ethoxy-3-fluoro-1H-pyrrolo[2,3-b]pyridin-5-yl)oxy)-4-(2-((R)-4-(4-fluorobenzyl)-2-(2-isopropylphenyl)piperazin-1-yl)-7-azaspiro[3.5]nonan-7-yl)-N-((6-((((1r,4r)-4-hydroxy-4-methylcyclohexyl)methyl)amino)-5-nitropyridin-3-yl)sulfonyl)benzamide] | 1 | 1
CCOc1nc2[nH]cc(F)c2cc1Oc1cc(N2CCC3(CC2)CC(N2CCN(C)C[C@H]2c2ccccc2C(C)C)C3)ccc1C(=O)NS(=O)(=O)c1cnc(NC[C@H]2CC[C@](C)(O)CC2)c([N+](=O)[O-])c1 [Example 138, 2-((6-ethoxy-3-fluoro-1H-pyrrolo[2,3-b]pyridin-5-yl)oxy)-N-((6-((((1r,4r)-4-hydroxy-4-methylcyclohexyl)methyl)amino)-5-nitropyridin-3-yl)sulfonyl)-4-(2-((R)-2-(2-isopropylphenyl)-4-methylpiperazin-1-yl)-7-azaspiro[3.5]nonan-7-yl)benzamide] | 1 | 1
CC(C)c1ccccc1[C@@H]1CN(Cc2cc3c(cn2)OCCO3)CCN1C1CC2(CCN(c3ccc(C(=O)NS(=O)(=O)c4cnc(NC[C@H]5CC[C@](C)(O)CC5)c([N+](=O)[O-])c4)c(Oc4cnc5[nH]cc(F)c5c4)c3)CC2)C1 [Example 341, 4-(2-((R)-4-((2,3-dihydro-[1,4]dioxino[2,3-c]pyridin-7-yl)methyl)-2-(2-isopropylphenyl)piperazin-1-yl)-7-azaspiro[3.5]nonan-7-yl)-2-((3-fluoro-1H-pyrrolo[2,3-b]pyridin-5-yl)oxy)-N-((6-((((1r,4r)-4-hydroxy-4-methylcyclohexyl)methyl)amino)-5-nitropyridin-3-yl)sulfonyl)benzamide] | 1 | 1
CCOc1nc2[nH]cc(F)c2cc1Oc1cc(N2CCC3(CC2)CC(N2CCN(C4COC4)C[C@H]2c2ccccc2C(C)C)C3)ccc1C(=O)NS(=O)(=O)c1cnc(NC[C@H]2CC[C@](C)(O)CC2)c([N+](=O)[O-])c1 [Example 132, 2-((6-ethoxy-3-fluoro-1H-pyrrolo[2,3-b]pyridin-5-yl)oxy)-N-((6-((((1r,4r)-4-hydroxy-4-methylcyclohexyl)methyl)amino)-5-nitropyridin-3-yl)sulfonyl)-4-(2-((R)-2-(2-isopropylphenyl)-4-(oxetan-3-yl)piperazin-1-yl)-7-azaspiro[3.5]nonan-7-yl)benzamide] | 1 | 1
CC(C)c1ccccc1[C@@H]1CN(Cc2ccc(F)c(F)c2)CCN1C1CC2(CCN(c3ccc(C(=O)NS(=O)(=O)c4cnc(NC[C@H]5CC[C@](C)(O)CC5)c([N+](=O)[O-])c4)c(Oc4cnc5[nH]cc(F)c5c4)c3)CC2)C1 [Example 72, 4-(2-((R)-4-(3,4-difluorobenzyl)-2-(2-isopropylphenyl)piperazin-1-yl)-7-azaspiro[3.5]nonan-7-yl)-2-((3-fluoro-1H-pyrrolo[2,3-b]pyridin-5-yl)oxy)-N-((6-((((1r,4r)-4-hydroxy-4-methylcyclohexyl)methyl)amino)-5-nitropyridin-3-yl)sulfonyl)benzamide] | 1 | 1
COc1nc2[nH]cc(F)c2cc1Oc1cc(N2CCC3(CC2)CC(N2CCN(Cc4cc5c(cn4)OCCO5)C[C@H]2c2ccccc2C(C)C)C3)ccc1C(=O)NS(=O)(=O)c1cnc(NC[C@H]2CC[C@](C)(O)CC2)c([N+](=O)[O-])c1 [Example 338, 4-(2-((R)-4-((2,3-dihydro-[1,4]dioxino[2,3-c]pyridin-7-yl)methyl)-2-(2-isopropylphenyl)piperazin-1-yl)-7-azaspiro[3.5]nonan-7-yl)-2-((3-fluoro-6-methoxy-1H-pyrrolo[2,3-b]pyridin-5-yl)oxy)-N-((6-((((1r,4r)-4-hydroxy-4-methylcyclohexyl)methyl)amino)-5-nitropyridin-3-yl)sulfonyl)benzamide] | 1 | 1
CCOc1nc2[nH]cc(F)c2cc1Oc1cc(N2CCC3(CC2)CC(N2CCN(Cc4cnn(C5CC5)c4)C[C@H]2c2ccccc2C(C)C)C3)ccc1C(=O)NS(=O)(=O)c1cnc(NC[C@H]2CC[C@](C)(O)CC2)c([N+](=O)[O-])c1 [Example 134, 4-(2-((R)-4-((1-cyclopropyl-1H-pyrazol-4-yl)methyl)-2-(2-isopropylphenyl)piperazin-1-yl)-7-azaspiro[3.5]nonan-7-yl)-2-((6-ethoxy-3-fluoro-1H-pyrrolo[2,3-b]pyridin-5-yl)oxy)-N-((6-((((1r,4r)-4-hydroxy-4-methylcyclohexyl)methyl)amino)-5-nitropyridin-3-yl)sulfonyl)benzamide] | 1 | 1
CC(C)c1ccccc1[C@@H]1CN(C[C@@H]2COCCO2)CCN1C1CC2(CCN(c3ccc(C(=O)NS(=O)(=O)c4cnc(NC[C@H]5CC[C@](C)(O)CC5)c([N+](=O)[O-])c4)c(Oc4cnc5[nH]cc(F)c5c4)c3)CC2)C1 [Example 335, 4-(2-((R)-4-(((R)-1,4-dioxan-2-yl)methyl)-2-(2-isopropylphenyl)piperazin-1-yl)-7-azaspiro[3.5]nonan-7-yl)-2-((3-fluoro-1H-pyrrolo[2,3-b]pyridin-5-yl)oxy)-N-((6-((((1r,4r)-4-hydroxy-4-methylcyclohexyl)methyl)amino)-5-nitropyridin-3-yl)sulfonyl)benzamide] | 1 | 1
CCOc1nc2[nH]cc(F)c2cc1Oc1cc(N2CCC3(CC2)CC(N2CCN(Cc4ccc(Cl)cc4)C[C@H]2c2ccccc2C(C)C)C3)ccc1C(=O)NS(=O)(=O)c1cnc(NC[C@H]2CC[C@](C)(O)CC2)c([N+](=O)[O-])c1 [Example 231, 4-(2-((R)-4-(4-chlorobenzyl)-2-(2-isopropylphenyl)piperazin-1-yl)-7-azaspiro[3.5]nonan-7-yl)-2-((6-ethoxy-3-fluoro-1H-pyrrolo[2,3-b]pyridin-5-yl)oxy)-N-((6-((((1r,4r)-4-hydroxy-4-methylcyclohexyl)methyl)amino)-5-nitropyridin-3-yl)sulfonyl)benzamide] | 1 | 1
CCOc1nc2[nH]cc(F)c2cc1Oc1cc(N2CCC3(CC2)CC(N2CCN(CCOC)C[C@H]2c2ccccc2C(C)C)C3)ccc1C(=O)NS(=O)(=O)c1cnc(NC[C@H]2CC[C@](C)(O)CC2)c([N+](=O)[O-])c1 [Example 130, 2-((6-ethoxy-3-fluoro-1H-pyrrolo[2,3-b]pyridin-5-yl)oxy)-N-((6-((((1r,4r)-4-hydroxy-4-methylcyclohexyl)methyl)amino)-5-nitropyridin-3-yl)sulfonyl)-4-(2-((R)-2-(2-isopropylphenyl)-4-(2-methoxyethyl)piperazin-1-yl)-7-azaspiro[3.5]nonan-7-yl)benzamide] | 1 | 1
COc1nc2[nH]cc(F)c2cc1Oc1cc(N2CCC3(CC2)CC(N2CCN(Cc4ccc5c(c4)CCO5)C[C@H]2c2ccccc2C(C)C)C3)ccc1C(=O)NS(=O)(=O)c1cnc(NC[C@H]2CC[C@](C)(O)CC2)c([N+](=O)[O-])c1 [Example 323, 4-(2-((R)-4-((2,3-dihydrobenzofuran-5-yl)methyl)-2-(2-isopropylphenyl)piperazin-1-yl)-7-azaspiro[3.5]nonan-7-yl)-2-((3-fluoro-6-methoxy-1H-pyrrolo[2,3-b]pyridin-5-yl)oxy)-N-((6-((((1r,4r)-4-hydroxy-4-methylcyclohexyl)methyl)amino)-5-nitropyridin-3-yl)sulfonyl)benzamide] | 1 | 1
COc1nc2[nH]cc(F)c2cc1Oc1cc(N2CCC3(CC2)CC(N2CCN(Cc4cc(F)c(OC)c(F)c4)C[C@H]2c2ccccc2C(C)C)C3)ccc1C(=O)NS(=O)(=O)c1cnc(NC[C@H]2CC[C@](C)(O)CC2)c([N+](=O)[O-])c1 [Example 107, 4-(2-((R)-4-(3,5-difluoro-4-methoxybenzyl)-2-(2-isopropylphenyl)piperazin-1-yl)-7-azaspiro[3.5]nonan-7-yl)-2-((3-fluoro-6-methoxy-1H-pyrrolo[2,3-b]pyridin-5-yl)oxy)-N-((6-((((1r,4r)-4-hydroxy-4-methylcyclohexyl)methyl)amino)-5-nitropyridin-3-yl)sulfonyl)benzamide] | 1 | 1

From patent US20250122191A1, “COMPOUNDS AS BCL-2 INHIBITORS” (Fochon Biosciences, Ltd, priority 2021, published 2025)
